Experimental data published in patent US8853406B2, “Substituted phenylenediamines as inhibitors of the interaction between MDM2 and P53” (Janssen Pharmaceutica NV, priority 2007, dated 2014).

Assays:
p53 in U87MG cells = test: U87MG p53-elisa as described in EP1809622; assay type: cell-based; settings: lowest dose giving at least 140% of the p53 value of the control
Male NMRI mice = test: Ro-4-1284 antagonism in mice (drug induced neurological effects); assay type: in vivo; settings: Ro-4-1284 antagonism in mice
Procedure: The test is a modification of a procedure described by Colpaert et al. (1975).^3 Male NMRI mice (22±3 g) were housed in macrolon observation cages (L×W×H: 11×12×17 cm; n=3 per cage). At the start of the experiments immediately before test compound administration, the initial body temperature of the mice was measured with a precision of 0.1° C. by inserting the thermo-sensitive probe (1.0 mm diameter) of an electric thermometer (Comark) to a constant depth of 3 cm into the esophagus until a stable reading was obtained. The right eye pupil diameter was measured with a graduated microscope and expressed in 1/24 mm units. Fifteen min after test compound administration, the mice were challenged with Ro-4-1284 (10 mg/kg, s.c.). Ro-4-1284 is a reserpine-like vesicular monoamine transport (VMAT-2) inhibitor, which rapidly depletes secretory vesicles.^3,4 Fifteen, 30 and 60 min after challenge, the mice were scored for palpebral opening (0, 1, 2, 3, 4, 5) and locomotor activity (−1, 0, 1, 2, 3). At the 60-min interval, immediately after the scoring of overt behavior, the right eye pupil diameter and the esophageal temperature were measured again. Abnormal phenomena such as intensive sniffing, chewing, rearing, hyperemia, piloerection, salivation, tremors, convulsions and death were noted (the latter phenomena were also noted when occurring before Ro-4-1284 administration). Criteria for drug-induced effects: reversal of ptosis: palpebral opening score >1 at 15, 30 or 60 min (2.7, 0.5 and 0% false positive controls, respectively; n>350); induction of prostration: score −1 for locomotion at 15, 30 or 60 min (never observed in controls); reversal of hypomotility: score >0 for locomotion at 15, 30 and 60 min (2.2, 0.8 and 0% false positive controls, respectively); reversal of miosis: pupil diameter >5 units at 60 min (0.8% false positives); potentiation of hypothermia: temperature decrease (over the 1-h time interval)>9.0° C. (1.4% false positives); reversal of hypothermia: temperature decrease <3.0° C. (1.8% false positives).
According to the standard procedure, R0-4-1284 is injected 15 min following subcutaneous or oral administration and observations start 15 min later. Doses are initially given to 3 animals. When at least 2 out of the 3 animals show activity for at least one of the observations, the compound is considered active.

p53 in A2780 cells = test: p53 ELISA in A2780 cells (capacity to preserve p53); assay type: cell-based; settings: lowest dose giving at least 140% of the p53 value of the control, 16 hours
Procedure: The capacity of the compounds to preserve p53 in A2780 cells was measured with the p53 enzyme linked immunosorbent assay. The p53 assay is a “sandwich” enzyme immunoassay employing two polyclonal antibodies. A polyclonal antibody, specific for the p53 protein, has been immobilized onto the surface of the plastic wells. Any p53 present in the sample to be assayed will bind to the capture antibody. The biotinylated detector polyclonal antibody also recognizes p53 protein, and will bind to any p53, which has been retained by the capture antibody. The detector antibody, in turn, is bond by horseradish peroxidase-conjugated streptavidin. The horseradish peroxidase catalyses the conversion of the chromogenic substrate o-phenylene diamine, the intensity of which is proportional to the amount of p53 protein bond to the plate. The colored reaction product is quantified using a spectrophotometer. Quantitation is achieved by the construction of a standard curve using known concentrations of purified recombinant HIS tagged p53 protein (see example C.1.).
A2780 cells (ATCC) were cultivated in RPMI 1640 supplemented with 10% fetal calf serum (FCS), 2 mM L-glutamine and gentamycin at 37° C. in a humidified incubator with 5% CO2.
A2780 cells were seeded at 20.000 cells per well in a 96 well plate, cultured for 24 hours and treated with compound for 16 hours at 37° C. in a humidified incubator. After incubation, the cells were washed once with phosphate-buffered saline and 30 μl, per well, low salt RIPA buffer (20 mM tris, pH7.0, 0.5 mM EDTA, 1% Nonidet P40, 0.5% DOC, 0.05% SDS, 1 mM PMSF, 1 μg/ml aprotinin and 0.5 μ/ml leupeptin) was added. Plates were placed on ice for 30 minutes to complete the lysis. p53 protein was detected in de lysates by using the sandwich ELISA, described below.
High binding polystyrene EIA/RIA 96 well plates (Costar 9018) were coated with the capture antibody pAb1801 (Abcam ab28-100) at a concentration of 1 μg/ml in coating buffer (0.1 M NaHCO3 pH8.2), 50 μl per well. The antibody was allowed to adhere overnight at 4° C. Coated plates were washed once with phosphate-buffered saline (PBS)/0.05% Tween 20 and 300 μl of blocking buffer (PBS, 1% bovine serum albumins (BSA)) was added, for an incubation period of 2 hours at room temperature. Dilutions of purified recombinant HIS tagged p53 protein, ranging from 3-200 ng/ml, were made in blocking buffer and used as standards.
Plates were washed twice with PBS/0.05% Tween 20 and blocking buffer or standards were added at 80 μl/well. To the standards, 20 μl of lysis buffer was added. The samples were added to the other wells at 20 μl lysate/well. After an overnight incubation at 4° C., plates were washed twice with PBS/0.05% Tween 20. Aliquots of 100 μl secondary polyclonal antibody p53(FL-393) (Tebubio, sc-6243) at a concentration of 1 μg/ml in blocking buffer were added to each well and allowed to adhere for 2 hours at room temperature. Plates were washed three times with PBS/0.05% Tween 20. Detection antibody anti-rabbit HRP (sc-2004, Tebubio) at 0.04 μg/ml in PBS/1% BSA was added and incubated for 1 hour at room temperature. Plates were washed three times with PBS/0.05% Tween 20 and 100 μl of substrate buffer was added (substrate buffer was prepared shortly before use by adding 1 tablet of 10 mg o-phenylene diamine (OPD) from Sigma and 125 μl 3% H2O2 to 25 ml OPD buffer: 35 mM citric acid, 66 mM Na2HPO4, pH5.6). After 5 to 10 minutes, colour reaction was stopped by adding 50 μl stop buffer (1 M H2SO4) per well. The absorbance at dual wavelengths of 490/655 nm was measured using a Biorad micro plate reader and the results were then analyzed.
For each experiment, controls (containing no drug) and a blank incubation (containing no cells or drugs) were run in parallel. The blank value was subtracted from all control and sample values. For each sample, the value of p53 (in absorbance units) was expressed as the percentage of the value for p53 present in the control. […]

Structure (SMILES) | U87MG p53-elisa LAD (p53 in U87MG cells) | drug induced neurological side effects (Male NMRI mice) | A2780 p53-elisa LAD (p53 in A2780 cells)
OC1CCc2c(Nc3ccc(NCCc4c[nH]c5ccccc45)cc3)ccnc21 (stereo not drawn) [drawing 33] | 1.00E-06 | yes | 1.00E-07
OC1CCc2c(Nc3ccc(NCCc4c[nH]c5ccccc45)cc3)ccnc21 (stereo not drawn) [drawing 34] | 1.00E-07 | yes | 3.00E-07
